Test results from ChEMBL document CHEMBL3272040, “3-Cyanocephems, and carbon-3 heterocyclic-substituted cephems via 1,3-dipolar cycloadditions” (1976).
In brackets after ≈: the same amount, converted by molar mass.

Experiments:
[1] = system: Streptococcus pyogenes; experiment: Antimicrobial activity against Streptococcus pyogenes MB-3124; assay type: functional
[2] = system: Staphylococcus aureus; experiment: Antimicrobial activity against Staphylococcus aureus MB-2865; assay type: functional

| MIC [1] | MIC [2] | Compound |
| --- | --- | --- |
| < 0.39 µg/mL | – | COC(=O)c1[nH]nc(C2=C(C(=O)OC(c3ccccc3)c3ccccc3)N3C(=O)[C@@H](NC(=O)Cc4cccs4)[C@H]3SC2)c1C(=O)OC |
| < 0.39 µg/mL | – | O=C(O)CO/N=C/C1=C(C(=O)OC(c2ccccc2)c2ccccc2)N2C(=O)[C@@H](NC(=O)Cc3cccs3)[C@H]2SC1 |
| < 0.39 µg/mL | – | O=C(Cc1cccs1)N[C@@H]1C(=O)N2C(C(=O)OC(c3ccccc3)c3ccccc3)=C(/C=N/OCc3ccccc3)CS[C@H]12 |
| < 0.39 µg/mL | – | COC(=O)c1cc(C2=C(C(=O)OC(c3ccccc3)c3ccccc3)N3C(=O)[C@@H](NC(=O)Cc4cccs4)[C@H]3SC2)n[nH]1 |
| < 0.39 µg/mL | – | O=C(Cc1cccs1)N[C@@H]1C(=O)N2C(C(=O)OC(c3ccccc3)c3ccccc3)=C(c3nn[nH]c3C(F)(F)F)CS[C@H]12 |
| < 0.39 µg/mL | < 0.39 µg/mL | Cc1ccc(S(=O)(=O)N(C)/N=C/C2=C(C(=O)O)N3C(=O)[C@@H](NC(=O)Cc4cccs4)[C@H]3SC2)cc1 |
| < 0.39 µg/mL | – | CC(=O)N/N=C/C1=C(C(=O)OC(c2ccccc2)c2ccccc2)N2C(=O)[C@@H](NC(=O)Cc3cccs3)[C@H]2SC1 |
| < 0.39 µg/mL | – | [N-]=[N+]=CC1=C(C(=O)OC(c2ccccc2)c2ccccc2)N2C(=O)[C@@H](NC(=O)Cc3cccs3)[C@H]2SC1 |
| < 0.39 µg/mL | 12.5 µg/mL (≈ 28.4 µM) | COC(=O)CO/N=C/C1=C(C(=O)O)N2C(=O)[C@@H](NC(=O)Cc3cccs3)[C@H]2SC1 |
| < 0.39 µg/mL | < 0.39 µg/mL | O=C(Cc1cccs1)N[C@@H]1C(=O)N2C(C(=O)O)=C(c3cc(-c4ccccc4)on3)CS[C@H]12 |
| < 0.39 µg/mL | – | COC(=O)C1=C(c2cc(C(=O)OC)n(C)n2)CS[C@@H]2[C@H](NC(=O)Cc3cccs3)C(=O)N12 |
| < 0.39 µg/mL | – | O=C(Cc1cccs1)N[C@@H]1C(=O)N2C(C(=O)OC(c3ccccc3)c3ccccc3)=C(c3cc(-c4ccccc4)on3)CS[C@H]12 |
| < 0.39 µg/mL | – | Cc1ccc(S(=O)(=O)N(C)/N=C/C2=C(C(=O)OC(c3ccccc3)c3ccccc3)N3C(=O)[C@@H](NC(=O)Cc4cccs4)[C@H]3SC2)cc1 |
| < 0.39 µg/mL | – | Cc1ccc(S(=O)(=O)N/N=C/C2=C(C(=O)OC(c3ccccc3)c3ccccc3)N3C(=O)[C@@H](NC(=O)Cc4cccs4)[C@H]3SC2)cc1 |
| < 0.39 µg/mL | – | COC(=O)c1cc(C2=C(C(=O)OC(c3ccccc3)c3ccccc3)N3C(=O)[C@@H](NC(=O)Cc4cccs4)[C@H]3SC2)nn1C |
| < 0.39 µg/mL | – | O=C(Cc1cccs1)N[C@@H]1C(=O)N2C(C(=O)OC(c3ccccc3)c3ccccc3)=C(/C=N/O)CS[C@H]12 |
| < 0.39 µg/mL | – | N#CC1=C(C(=O)OC(c2ccccc2)c2ccccc2)N2C(=O)[C@@H](NC(=O)Cc3cccs3)[C@H]2SC1 |

| MIC [1] | MIC [2] | Compound |
| --- | --- | --- |
| < 0.39 µg/mL | 0.78 µg/mL (≈ 2.23 µM) | N#CC1=C(C(=O)O)N2C(=O)[C@@H](NC(=O)Cc3cccs3)[C@H]2SC1 |
| < 0.39 µg/mL | – | O=CC1=C(C(=O)OC(c2ccccc2)c2ccccc2)N2C(=O)[C@@H](NC(=O)Cc3cccs3)[C@H]2SC1 |
| < 0.39 µg/mL | – | CO/N=C/C1=C(C(=O)OC(c2ccccc2)c2ccccc2)N2C(=O)[C@@H](NC(=O)Cc3cccs3)[C@H]2SC1 |
| < 0.39 µg/mL | – | COC(=O)C1=C(c2cc(-c3ccccc3)on2)CS[C@@H]2[C@H](NC(=O)Cc3cccs3)C(=O)N12 |
| < 0.39 µg/mL | – | COC(=O)CO/N=C/C1=C(C(=O)OC)N2C(=O)[C@@H](NC(=O)Cc3cccs3)[C@H]2SC1 |
| < 0.39 µg/mL | – | COC(=O)C1=C(/C=N/N(C)S(=O)(=O)c2ccc(C)cc2)CS[C@@H]2[C@H](NC(=O)Cc3cccs3)C(=O)N12 |
| < 0.39 µg/mL | – | Cc1ccc(S(=O)(=O)[N-]/N=C/C2=C(C(=O)OC(c3ccccc3)c3ccccc3)N3C(=O)[C@@H](NC(=O)Cc4cccs4)[C@H]3SC2)cc1.[Li+] |
| < 0.39 µg/mL | < 0.39 µg/mL | O=C(Cc1cccs1)N[C@@H]1C(=O)N2C(C(=O)O)=C(/C=N/O)CS[C@H]12 |
| < 0.39 µg/mL | – | O=C(Cc1cccs1)N[C@@H]1C(=O)N2C(C(=O)OC(c3ccccc3)c3ccccc3)=C(/C=N/NC(=O)c3ccccc3)CS[C@H]12 |
| < 0.39 µg/mL | – | O=C(Cc1cccs1)N[C@@H]1C(=O)N2C(C(=O)OC(c3ccccc3)c3ccccc3)=C(/C=N/Nc3ccc([N+](=O)[O-])cc3)CS[C@H]12 |
| < 0.39 µg/mL | 3.12 µg/mL (≈ 6.96 µM) | COC(=O)c1cc(C2=C(C(=O)O)N3C(=O)[C@@H](NC(=O)Cc4cccs4)[C@H]3SC2)n[nH]1 |
| < 0.39 µg/mL | – | CCOC(=O)N/N=C/C1=C(C(=O)OC(c2ccccc2)c2ccccc2)N2C(=O)[C@@H](NC(=O)Cc3cccs3)[C@H]2SC1 |
| < 0.39 µg/mL | – | O=C(Cc1cccs1)N[C@@H]1C(=O)N2C(C(=O)OC(c3ccccc3)c3ccccc3)=C(C#[N+][O-])CS[C@H]12 |
| < 0.39 µg/mL | 0.78 µg/mL (≈ 1.69 µM) | COC(=O)c1cc(C2=C(C(=O)O)N3C(=O)[C@@H](NC(=O)Cc4cccs4)[C@H]3SC2)nn1C |
| < 0.39 µg/mL | – | COC(=O)C1=C(/C=N/O)CS[C@@H]2[C@H](NC(=O)Cc3cccs3)C(=O)N12 |
| < 0.39 µg/mL | – | CCOC(=O)C1CC(C2=C(C(=O)OC(c3ccccc3)c3ccccc3)N3C(=O)[C@@H](NC(=O)Cc4cccs4)[C@H]3SC2)=NN1 (stereo partly specified) |
| < 0.39 µg/mL | – | COC(=O)CO/N=C/C1=C(C(=O)OC(c2ccccc2)c2ccccc2)N2C(=O)[C@@H](NC(=O)Cc3cccs3)[C@H]2SC1 |
